Measured values published in publication PMC5674494, “Use of Cyclic Backbone NGR-Based SPECT to Increase Efficacy of Postmyocardial Infarction Angiogenesis Imaging” (Contrast Media & Molecular Imaging, 2017).

How the values were obtained:
[1] = biological target: T1, CD13 (Mus musculus, UniProt P97449); assay: Dual-isotope micro-SPECT, SUV of 111In-labeled NGR tracers in heart segments of MI mice; assay type: in vivo, Swiss mice; conditions: MI mice 7 days after LAD ligation, mean ± SEM
T1 construct: the level of CD13 expression was markedly higher in the infarcted myocardium of MI animals; from tissue; host or cells: heart (myocardium) of living Swiss mice, 7 days after MI
T1 sequence (P97449 1-966): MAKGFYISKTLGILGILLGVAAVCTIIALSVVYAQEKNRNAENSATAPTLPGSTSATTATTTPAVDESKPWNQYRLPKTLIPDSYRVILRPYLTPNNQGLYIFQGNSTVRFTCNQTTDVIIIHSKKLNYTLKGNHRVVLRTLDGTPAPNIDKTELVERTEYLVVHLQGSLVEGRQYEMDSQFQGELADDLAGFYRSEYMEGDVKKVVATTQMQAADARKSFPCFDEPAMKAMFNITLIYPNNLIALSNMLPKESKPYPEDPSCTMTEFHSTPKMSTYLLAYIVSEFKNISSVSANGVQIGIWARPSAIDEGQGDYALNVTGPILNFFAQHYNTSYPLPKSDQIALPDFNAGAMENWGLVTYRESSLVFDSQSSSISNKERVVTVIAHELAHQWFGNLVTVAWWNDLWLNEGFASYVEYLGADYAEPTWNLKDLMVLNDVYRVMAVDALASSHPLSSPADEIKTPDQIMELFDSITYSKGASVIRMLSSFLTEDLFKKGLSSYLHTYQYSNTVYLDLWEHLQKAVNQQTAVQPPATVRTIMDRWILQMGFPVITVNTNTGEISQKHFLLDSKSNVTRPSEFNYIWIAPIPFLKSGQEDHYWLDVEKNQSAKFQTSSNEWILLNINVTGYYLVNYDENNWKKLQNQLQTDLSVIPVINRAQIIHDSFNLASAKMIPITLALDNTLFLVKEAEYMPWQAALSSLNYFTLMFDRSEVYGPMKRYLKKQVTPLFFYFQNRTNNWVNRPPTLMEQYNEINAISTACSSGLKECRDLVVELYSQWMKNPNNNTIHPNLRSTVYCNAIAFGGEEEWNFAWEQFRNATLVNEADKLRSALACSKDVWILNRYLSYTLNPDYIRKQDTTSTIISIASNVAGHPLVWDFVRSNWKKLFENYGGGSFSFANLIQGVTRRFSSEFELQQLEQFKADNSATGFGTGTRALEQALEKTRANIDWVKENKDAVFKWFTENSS
Procedure: (§1) In 10–12-week-old male Swiss mice, we induced MI by ligation of the left anterior descending coronary artery (LAD) as described before to test coNGR (n = 5) or co(NGR)4 (n = 8). A group of sham-operated Swiss mice (n = 5) was used as control. SPECT imaging was performed 7 days after MI or sham surgery. All animals were held under the guidelines of the animal care facility (Maastricht University). All animal experiments were approved by the Committee for Animal Welfare of Maastricht University.
Mice were anesthetized with isoflurane (induction 2.5%; maintenance 1.5%), a catheter was placed in a tail vein, and animals were positioned in the SPECT camera (MILabs, Utrecht, The Netherlands). Prior to image acquisition, a bolus injection of ^99mTc-sestamibi and ^111In-coNGR or ^111In-co(NGR)4 was given intravenously (i.v.) in a maximum volume of 200 µL. Table S1 in Supplementary Material available online at https://doi.org/10.1155/2017/8638549 provides an overview of the average injected dose. Immediately after injection, 4 consecutive time frames of 15 min each were acquired. For image quantification we used the last of these frames.
Acquired list mode data was reconstructed using MILabs reconstruction software (version 2.51) employing the POS-EM algorithm (6 iterations and 16 subsets, reconstructed at a voxel size of 0.4 mm). ^99mTc and ^111In images were reconstructed by selecting photo peak and background energy levels as described before.
To allow quantification of imaging agent uptake, in vivo isotope-specific conversion factors (CF) were determined for the 0.6 mm collimator in a representative phantom with a known activity. Using the previously described method the following conversion factors (CF), CF99mTc 612 MBq/mL and CF111In 643 MBq/mL, were found.
PMOD 3.7 cardiac tool PCARD (PMOD technologies, Zürich, Switzerland) was used to segment the heart in the 17-segment model. Uptake per segment was subsequently expressed as a mean standardized uptake value (SUVmean), also using the previously described method. For body weight, we assumed that 1 g equalled 1 mL.

[2] = Octanol/water partition coefficient (logP); assay type: physicochemical; conditions: 111In-labeled tracer, separate experiment 2 of 3, N = 3, method as ref 22
Procedure: The logP value of each compound was determined in three separate experiments as described previously.

[3] = in vitro; assay type: in vitro ADME; conditions: human, whole blood
Procedure: ^111[…], or ^111In-co(NGR)4 was added to […] human blood in heparin (BD Biosciences, […], The Netherlands). Blood stability was tested at 0, 10, 30, and 50 min. For each time point imaging agents were separated from blood cells and proteins by adding 0.5 mL MeCN (VWR International BV, Breda, The Netherlands) to 0.5 mL blood sample followed by centrifugation (2,000 ×g, 3 min). Supernatant samples were analyzed by HPLC using the above-mentioned method.

[4] = set-up: species or system Swiss mice; conditions: mouse, in vivo
Procedure: as §1, with “University. After imaging, the vital organs were harvested and kept for gamma-counting (Wallac Wizard, Turku, Finland). Acquired data were expressed as percentage injected dose per gram tissue (% ID/g).” for “University.”

[5] = 111In tracer i.v., last of 4 15-min SPECT frames, SUVmean, 17-segment model, n = 5 coNGR, n = 8 co(NGR)4
[6] = 111In-labeled tracer i.v., last of 4 consecutive 15 min SPECT frames

SUV of NGR imaging agent, segment 1. Basal anterior [1, 5]: 0.37 ± 0.06
SUV of NGR imaging agent, segment 2. Basal anteroseptal [1, 5]: 0.37 ± 0.05
SUV of NGR imaging agent, segment 3. Basal inferoseptal [1, 5]: 0.40 ± 0.05
SUV of NGR imaging agent, segment 4. Basal inferior [1, 5]: 0.41 ± 0.06
SUV of NGR imaging agent, segment 5. Basal inferolateral [1, 5]: 0.46 ± 0.07
SUV of NGR imaging agent, segment 6. Basal anterolateral [1, 5]: 0.40 ± 0.07
SUV of NGR imaging agent, segment 7. Mid anterior [1, 5]: 0.32 ± 0.04
SUV of NGR imaging agent, segment 8. Mid anteroseptal [1, 5]: 0.36 ± 0.03
SUV of NGR imaging agent, segment 9. Mid inferoseptal [1, 5]: 0.59 ± 0.06
SUV of NGR imaging agent, segment 10. Mid inferior [1, 5]: 0.56 ± 0.08
SUV of NGR imaging agent, segment 11. Mid inferolateral [1, 5]: 0.44 ± 0.07
SUV of NGR imaging agent, segment 12. Mid anterolateral [1, 5]: 0.40 ± 0.05
SUV of NGR imaging agent, segment 13. Apical anterior [1, 5]: 0.54 ± 0.07
SUV of NGR imaging agent, segment 14. Apical septal [1, 5]: 0.80 ± 0.09
SUV of NGR imaging agent, segment 15. Apical inferior [1, 5]: 0.82 ± 0.08
SUV of NGR imaging agent, segment 16. Apical lateral [1, 5]: 0.54 ± 0.06
SUV of NGR imaging agent, segment 17. Apex [1, 5]: 0.76 ± 0.10
SUV in segments affected by MI [1, 6]: 0.57 ± 0.03
SUV in segments not affected by MI [1, 6]: 0.43 ± 0.02
Structure (SMILES): N=C(N)NCCC[C@@H]1NC(=O)CNC(=O)[C@H](CC(N)=O)NC(=O)[C@H](CSC2CC(=O)N(CC3CCC(C(=O)NCCCC[C@H](NC(=O)C4CCC(CN5C(=O)CC(SC[C@@H]6NC(=O)CNC(=O)[C@H](CCCNC(=N)N)NC(=O)CNC(=O)[C@H](CC(N)=O)NC6=O)C5=O)CC4)C(=O)NCCCC[C@H](NC(=O)[C@H](CCCCNC(=O)C4CCC(CN5C(=O)CC(SC[C@@H]6NC(=O)CNC(=O)[C@H](CCCNC(=N)N)NC(=O)CNC(=O)[C@H](CC(N)=O)NC6=O)C5=O)CC4)NC(=O)C4CCC(CN5C(=O)CC(SC[C@@H]6NC(=O)CNC(=O)[C@H](CCCNC(=N)N)NC(=O)CNC(=O)[C@H](CC(N)=O)NC6=O)C5=O)CC4)C(=O)N[C@@H](CCCCNC(=O)[C@@H](N)CSC4CC(=O)N(CC5CCC(C(=O)NCCCCC(C(=O)O)N(CCN(CC(=O)O)CC(=O)O)CCN(CC(=O)O)CC(=O)O)CC5)C4=O)C(N)=O)CC3)C2=O)NC(=O)CNC1=O (some centres unmarked) [co(NGR)4]
logP2 [2]: −3.64 ± 0.03
remaining at 50 min [3]: 25.3%
kidney uptake [4]: Substantial kidney uptake
urinary excretion ([4]; iv): 54.9 ± 9.1 % ID/g
